Data published in US12667586B2, “Treatments for ocular surface disorders” (Glaukos Corporation, priority 2023, dated 2026).

Key:
[1] = tested on: persistent epithelial defect (PED) of the cornea; assay: Phase 2 randomized, double-masked, vehicle-controlled study in subjects with persistent epithelial defects (PED) from ocular chemical and/or thermal injuries; format: in vivo, human; conditions: for subjects who achieved corneal epithelial recovery (re-epithelialized by Day 28 and remained so for at least 28 days): topical under bandage contact lens and to fornices, Day 1, Day 2, Day 14 if not re-epithelialized, n=12, full data set
Excerpt: A Phase 2, Randomized, Prospective, Double-Masked, Vehicle-Controlled Study to Assess the Efficacy and Safety of Lufepirsen® (Lufepirsen) Applied Topically in Subjects with Persistent Epithelial Defects (PED) Resulting from Ocular Chemical and/or Thermal Injuries.
This Example describes the use of an exemplary connexin modulator (lufepirsen) in a randomized, prospective, vehicle-controlled, double-masked, human clinical trial to treat non-healing ocular surface defects. Lufepirsen is a connexin 43 antisense oligonucleotide according to SEQ ID NO:1. The vehicle comparator in the trial was Pluronic F-127.
Study Subjects: A total of 35 subjects were enrolled in this clinical trial. All eligible subjects presented with a non-infected, persistent epithelial defect (PED) of the cornea as a result of a chemical and/or thermal ocular injury, that was refractory to current standard of care for at least 14 days. Of the 35 subjects, 24 subjects received topical ocular dose administrations of […] and 11 subjects received Vehicle. […]
• Corneal epithelial recovery, defined as a cornea that re-epithelializes by Day 28 of treatment and remains re-epithelialized for at least 28 days after initial re-epithelialization was first recorded, as assessed by the Investigator. Secondary Endpoints: • The time to epithelialization defined as the time from randomization to the time of initial re-epithelialization. • Improvement of visual acuity from baseline over the course of the study period. • Number of […] treatment doses required for recovery of the corneal epithelium. Exploratory Endpoints: • Change from baseline in PED area defined as the largest diameter times the largest one perpendicular to it, within the confines of the epithelial defect. • Corneal re-epithelialization, defined as a cornea that has re-epithelialized by Day 28 of treatment. • Change from baseline in ocular symptoms. • Primary, secondary, and exploratory endpoints were also assessed (as applicable) for the open-label section of the study. • Descriptive comparison of intrasubject corneal re-epithelization to fellow eye in subjects with bilateral injuries Safety: • Incidence of Treatment Emergent Adverse Events.
Treatment Dosing: The study comprised of a 28-day Treatment Period, followed by a Post-treatment Follow-up Period of at least 28 days to evaluate both safety and re-epithelization status (durability), both of which were double-masked (i.e., double-blinded). Once determined to be eligible, subjects were randomized to receive either […] 0.06% or […] 0.006% or Vehicle in a 1:1:1 ratio respectively. Investigational product was applied under a bandage contact lens (BCL) and to the fornices of the study eye at the following time points during the Treatment Period: • Day 1 • Day 2 • Day 14 (if the cornea has not re-epithelialized)
The eye was then covered with a double eye pad and taped shut for approximately 8 hours.
Three treatment arms were evaluated in the study. Randomization was in a 1:1:1 ratio: • GROUP A—[…] 0.06% • GROUP B—[…] 0.006% • GROUP C—Vehicle
There was a single application of investigational product on Day 1 and Day 2. A potential additional application of investigational product was scheduled at Day 14 if re-epithelialization has not occurred.
The first investigational product application occurred following randomization on Day 1 of the Treatment Period, with the second application administered on Day 2. […]

[2] = target: gap junctions (Homo sapiens); conditions: at 17 μM; cited from earlier work
gap junctions (Homo sapiens), sequence (P08034 whole entry): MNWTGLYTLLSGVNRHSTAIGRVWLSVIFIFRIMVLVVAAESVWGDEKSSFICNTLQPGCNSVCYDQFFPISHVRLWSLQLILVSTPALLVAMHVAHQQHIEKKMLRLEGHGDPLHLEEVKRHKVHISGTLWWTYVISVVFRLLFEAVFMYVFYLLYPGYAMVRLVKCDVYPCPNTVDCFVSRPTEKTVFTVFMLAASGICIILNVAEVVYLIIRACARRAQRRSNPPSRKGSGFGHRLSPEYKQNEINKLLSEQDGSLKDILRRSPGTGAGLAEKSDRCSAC

Cx43 hemichannels = Cx43 hemichannels (Homo sapiens, UniProt P17302); conditions: cited from earlier work
Cx43 hemichannels, sequence (P17302 2-382 limits assumed): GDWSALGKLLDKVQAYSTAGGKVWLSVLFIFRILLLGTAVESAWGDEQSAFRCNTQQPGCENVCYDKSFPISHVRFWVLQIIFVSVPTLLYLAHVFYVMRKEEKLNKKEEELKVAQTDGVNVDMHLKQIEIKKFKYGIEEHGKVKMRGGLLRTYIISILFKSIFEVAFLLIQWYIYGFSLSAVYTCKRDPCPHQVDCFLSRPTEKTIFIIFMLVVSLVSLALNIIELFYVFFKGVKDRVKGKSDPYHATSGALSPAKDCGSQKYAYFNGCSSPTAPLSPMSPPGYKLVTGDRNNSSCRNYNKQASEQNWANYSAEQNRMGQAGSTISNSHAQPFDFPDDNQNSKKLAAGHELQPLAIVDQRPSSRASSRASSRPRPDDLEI

gap junctions = conditions: in some circumstances; cited from earlier work
[3] = tested on: ATP release in glioma cells; conditions: read-out: IC50 (half maximal inhibitory concentration) for the inhibition of ATP release; cited from earlier work

## 5′-GTAATTGCGGCAAGAAGAATTGTTTCTGTC-3′ (antisense GTAATTGCGGCAAGAAGAATTGTTTCTGTC; listed as DNA, chemistry not given here)
[1]; LUFEPIRSEN 0.006%
  subjects who achieved corneal epithelial recovery (re-epithelialized by Day 28 and remained so for at least 28 days): 66.7%
[1]; LUFEPIRSEN 0.06%
  subjects who achieved corneal epithelial recovery (re-epithelialized by Day 28 and remained so for at least 28 days): 66.7%
[1]; TEAEs across all 3 treatment groups mild to moderate, unlikely/unrelated to study drug, a SAE not related to study drug
  tolerability of treatment (TEAEs): well tolerated
[1]; both LUFEPIRSEN doses pooled (n=24) vs VEH (n=11)
  times more likely to heal than the vehicle group: 2.44 times
[1]; both LUFEPIRSEN doses pooled (n=24) vs VEH (n=11), Fisher's exact test p=0.065
  comparative improvement in corneal epithelial recovery over the VEH group: 39.4%

## GHGDPLHLEEVKC [^32Gap24, peptide that mimics a 13 amino acid long stretch of the L2 region of Cx32]
[2]
  effect on gap junctions: without affecting gap junctions

## VDCFLSRPTEKT [Peptide5]
Cx43 hemichannels
  concentration at which Cx43 hemichannels are inhibited: 5 to 10 µM
Gap junctions
  concentration at which incubation also leads to inhibition of gap junctions: ≥ 100 µM

## YGRKKRRQRRRKQIEIKKFK [TAT-^43Gap19]
[3]
  IC50: 7 µM
